Source: the NIST ThermoML archive (doi:10.1016/j.jct.2012.10.011)

Test: molar heat capacity at constant pressure
Details: 101.33 kPa, Vacuum adiabatic calorimetry

CN=C=O [methyl isocyanate]
Details | molar heat capacity at constant pressure [J/K/mol]
80 K, Crystal | 54.31
85.79 K, Crystal | 57.74
88.54 K, Crystal | 59.08
90 K, Crystal | 59.83
91.98 K, Crystal | 60.67
94.33 K, Crystal | 61.76
97.68 K, Crystal | 63.18
100 K, Crystal | 64.14
100.44 K, Crystal | 64.31
102.2 K, Crystal | 64.94
104.38 K, Crystal | 65.94
109.48 K, Crystal | 67.86
110 K, Crystal | 68.03
112.6 K, Crystal | 68.66
115.84 K, Crystal | 69.87
118.15 K, Crystal | 70.67
120 K, Crystal | 71.25
120.45 K, Crystal | 71.25
121.38 K, Crystal | 71.63
126.84 K, Crystal | 73.26
128.41 K, Crystal | 73.55
130 K, Crystal | 73.97
134.41 K, Crystal | 75.06
134.59 K, Crystal | 75.1
135.09 K, Crystal | 75.27
136.89 K, Crystal | 75.48
136.94 K, Crystal | 75.65
140 K, Crystal | 76.36
141.89 K, Crystal | 76.82
141.97 K, Crystal | 76.94
142.35 K, Crystal | 76.96
146.02 K, Crystal | 77.82
148.22 K, Crystal | 78.32
149.33 K, Crystal | 78.45
150 K, Crystal | 78.7
151.79 K, Crystal | 79.04
155.37 K, Crystal | 79.91
156.39 K, Crystal | 80
160 K, Crystal | 81
160.19 K, Crystal | 79.83
161.8 K, Crystal | 81.59
163.79 K, Crystal | 82.42
166.13 K, Crystal | 83.6
167.44 K, Crystal | 83.09
168.2 K, Crystal | 82.26
169.15 K, Crystal | 83.01
169.49 K, Crystal | 82.34
170 K, Crystal | 83.39
171.56 K, Crystal | 83.51
172.5 K, Crystal | 83.39
173.3 K, Crystal | 84.35
180 K, Liquid | 103.4
183.24 K, Liquid | 103.39
186.5 K, Liquid | 103.34
187.36 K, Liquid | 103.26
190 K, Liquid | 103.2
192.13 K, Liquid | 103.09
196.44 K, Liquid | 103.09
197.5 K, Liquid | 102.93
198.47 K, Liquid | 103
200 K, Liquid | 103
201 K, Liquid | 102.97
202.92 K, Liquid | 103
210 K, Liquid | 103
211.33 K, Liquid | 103
219.74 K, Liquid | 103
220 K, Liquid | 103
228.75 K, Liquid | 102.9
230 K, Liquid | 103.1
238.24 K, Liquid | 103.3
240 K, Liquid | 103.4
247.64 K, Liquid | 103.6
250 K, Liquid | 103.8
257.03 K, Liquid | 104.1
260 K, Liquid | 104.3
266.32 K, Liquid | 104.6
270 K, Liquid | 104.9
275.54 K, Liquid | 105.4
280 K, Liquid | 105.8
284.64 K, Liquid | 106.1
290 K, Liquid | 106.7
293.07 K, Liquid | 107
300 K, Liquid | 107.7
301.23 K, Liquid | 107.7
